In paper PMC10222209 (Pharmaceuticals, 2023):
Entries after “also recorded” stand apart in the source; their conditions may differ. Like-named read-outs stand apart in the source and are kept apart here.

Assays:
[1] = test system: 22RV1 cells; test: Antiproliferative assay (resazurin, 72 h) in 22RV1 cells; format: cell-based; details: for inhibition at 1 µM / IC50: Homo sapiens; for antiproliferative activity, in words: enzalutamide-resistant cell lines LNCaP95 and 22RV1, SAR statements
Procedure: (§1) 22Rv1 cells were obtained from ATCC. LNCaP95 cells were provided by Dr. Yan Dong’s laboratory (Tulane University School of Medicine). LNCaP95 cells were maintained in an RPMI1640 medium with charcoal-stripped serum (CSS). 22Rv1 cells were maintained in an RPMI1640 medium with 10% FBS. Cells were seeded in 96-well plates (5 × 10^3 cells/well) containing a 50 μL growth medium for 24 h. After medium removal, a 100 μL fresh medium containing individual compounds at different concentrations was added to each well and incubated at 37 °C for 72 h. Then, 20 μL of resazurin was added for 2 h before recording fluorescence at 560 nm (excitation) and 590 nm (emission) using a Victor microtiter plate fluorometer (Perkin-Elmer, Waltham, MA, USA).

[2] = test system: LNCaP95 cells; test: Antiproliferative assay (resazurin, 72 h) in LNCaP95 cells; format: cell-based
Procedure: as §1

[3] = 22RV1, 1.0 μM, read-out: Inhibitory Rate 22RV1 @1.0 μM
[4] = antiproliferation, 22RV1, 72 h, mean of three independent experiments, read-out: IC50 (μM) 22RV1
[5] = observed, −log IC50, 22RV1 antiproliferation, read-out: Obs pIC50 (converted)
[6] = LNCaP-95, antiproliferation, LNCaP95, 72 h, mean of three independent experiments, read-out: IC50 (μM) LNCaP95

SMILES | inhibition at 1 µM [1, 3] [%] | antiproliferative activity, in words [1] | IC50 [1, 4] [µM] | IC50 [1, 5] [µM] | IC50 [2, 6] [µM] | IC50 ([1]; 22Rv1, 72 h, read-out: IC50 (μM) 22RV1) [µM] | inhibition at 1 µM ([1]; 22Rv1, read-out: Inhibitory Rate 22RV1 @1.0 μM) [%] | IC50 ([1]; 22Rv1, read-out: Obs pIC50 (converted)) [µM] | IC50 ([2]; LNCaP-95, 72 h, read-out: IC50 (μM) LNCaP95) [µM] | IC50 ([1]; 22Rv1, antiproliferation, approximate value, read-out: IC50 in 22RV1 (text)) [µM] | IC50 ([2]; LNCaP-95, antiproliferation, approximate value, read-out: IC50 in LNCaP95 (text)) [µM]
Nc1ccc(NC(=O)c2cc(Cl)ccc2O)c(Cl)c1 [B2] | 19.6 | complete loss of activity | – | – | – | – | – | – | – | – | –
O=C(Nc1ccc([N+](=O)[O-])c(Cl)c1)c1ccc(Cl)cc1O [A4] | 47.5 | – | 0.713 ± 0.178 | 0.713 | 3.43 ± 0.49 | – | – | – | – | – | –
COc1cc(NC(=O)c2ccc(Cl)cc2O)ccc1[N+](=O)[O-] [A8] | 35.9 | – | 2.11 ± 0.52 | 2.11 | 0.615 ± 0.138 | – | – | – | – | – | –
COc1cc([N+](=O)[O-])ccc1NC(=O)c1ccc(Cl)cc1O [A3] | 50 | – | 0.714 ± 0.303 | 0.714 | 2.48 ± 0.702 | – | – | – | – | – | –
N#Cc1ccc(NC(=O)c2cc(F)ccc2O)c(Cl)c1 [B12] | 44.3 | – | 3.23 ± 1.84 | 3.23 | > 10 | – | – | – | – | – | –
COc1cc([N+](=O)[O-])ccc1NC(=O)c1cc(Br)ccc1O [A20] | 60.2 | equivalent or improved anti-proliferation potency | 0.242 ± 0.044 | 0.242 | 0.304 ± 0.053 | – | – | – | – | – | –
O=C(Nc1ccc([N+](=O)[O-])cc1F)c1cc(Cl)ccc1O [A10] | 56 | – | 0.271 ± 0.125 | 0.271 | 0.373 ± 0.069 | – | – | – | – | – | –
O=C(Nc1ccc([N+](=O)[O-])cc1F)c1ccc(Cl)cc1O [A1] | 54.3 | – | 0.467 ± 0.131 | 0.467 | 1.19 ± 0.53 | – | – | – | – | – | –
O=C(Nc1ccnc(C(F)(F)F)c1)c1cc(F)ccc1O [B11] | 47.7 | – | 0.581 ± 0.205 | 0.581 | 0.392 ± 0.136 | – | – | – | – | – | –
O=C(Nc1ccc(C(F)(F)F)c(C(F)(F)F)c1)c1cc(Br)ccc1O [B4] | 53.1 | – | 0.307 ± 0.059 | 0.307 | 0.213 ± 0.042 | – | – | – | – | – | –
O=C(Nc1ccc([N+](=O)[O-])c(C(F)(F)F)c1)c1cccc(Cl)c1 [C3] | 43.7 | retained | 0.557 ± 0.127 | 0.557 | 0.33 ± 0.081 | – | – | – | – | – | –
O=C(Nc1ccc([N+](=O)[O-])cc1Cl)c1cccc(Br)c1 [C4] | 31.2 | significant loss of activity | – | – | – | – | – | – | – | – | –
O=C(Nc1ccc([N+](=O)[O-])c(Cl)c1)c1cc(Cl)ccc1O [A14] | – | – | – | – | – | 0.386 ± 0.171 | 51.3 | 0.386 | 1.67 ± 0.25 | – | –
CC(=O)Oc1ccc(Cl)cc1C(=O)Nc1ccc([N+](=O)[O-])cc1Cl [C7] | 42.9 | comparable activity | 0.481 ± 0.113 | 0.481 | 0.386 ± 0.098 | – | – | – | – | – | –
O=C(Nc1ccc([N+](=O)[O-])c(C(F)(F)F)c1)c1cc(Cl)ccc1O [A16] | 47.5 | – | 0.556 ± 0.112 | 0.556 | 0.693 ± 0.314 | – | – | – | – | – | –
N#Cc1cc(NC(=O)c2cc(F)ccc2O)ccc1C(F)(F)F [B8] | 60.4 | – | 0.24 ± 0.048 | 0.24 | 0.396 ± 0.065 | – | – | – | – | – | –
COc1cc(NC(=O)c2cc(Cl)ccc2O)ccc1[N+](=O)[O-] [A18] | 55.4 | – | 0.483 ± 0.145 | 0.483 | 2.11 ± 0.46 | – | – | – | – | – | –
COc1cc([N+](=O)[O-])ccc1NC(=O)c1cc(Cl)ccc1O [A13] | 57.3 | – | 0.158 ± 0.044 | 0.158 | 0.444 ± 0.119 | – | – | – | – | – | –
Cc1cc(NC(=O)c2ccc(Cl)cc2O)ccc1[N+](=O)[O-] [A7] | 42.5 | – | 0.976 ± 0.205 | 0.975 | 0.789 ± 0.436 | – | – | – | – | – | –
O=C(Nc1ccc([N+](=O)[O-])cc1Cl)c1cc(Cl)ccc1OS(=O)(=O)C(F)(F)F [C8] | 59.2 | equivalent or improved anti-proliferation potency; also recorded: slightly improved | 0.252 ± 0.092 | 0.252 | 0.196 ± 0.064 | – | – | – | – | – | –
O=C(Nc1ccc([N+](=O)[O-])cc1)c1cc(Cl)ccc1O [A9] | 44.9 | – | 0.581 ± 0.289 | 0.581 | 0.812 ± 0.374 | – | – | – | – | – | –

SMILES | inhibition at 1 µM [1, 3] [%] | antiproliferative activity, in words [1] | IC50 [1, 4] [µM] | IC50 [1, 5] [µM] | IC50 [2, 6] [µM] | IC50 ([1]; 22Rv1, 72 h, read-out: IC50 (μM) 22RV1) [µM] | inhibition at 1 µM ([1]; 22Rv1, read-out: Inhibitory Rate 22RV1 @1.0 μM) [%] | IC50 ([1]; 22Rv1, read-out: Obs pIC50 (converted)) [µM] | IC50 ([2]; LNCaP-95, 72 h, read-out: IC50 (μM) LNCaP95) [µM] | IC50 ([1]; 22Rv1, antiproliferation, approximate value, read-out: IC50 in 22RV1 (text)) [µM] | IC50 ([2]; LNCaP-95, antiproliferation, approximate value, read-out: IC50 in LNCaP95 (text)) [µM]
O=C(Nc1ccc([N+](=O)[O-])c(F)c1)c1cc(Cl)ccc1O [A15] | 55.4 | – | 0.28 ± 0.092 | 0.28 | 0.755 ± 0.221 | – | – | – | – | – | –
Cc1cc([N+](=O)[O-])ccc1NC(=O)c1ccc(Cl)cc1O [A2] | 47.1 | – | 0.676 ± 0.245 | 0.676 | 0.62 ± 0.311 | – | – | – | – | – | –
O=C(Nc1ccc([N+](=O)[O-])cc1Cl)c1cccc(Cl)c1 [C2] | 19 | significant loss of activity | – | – | – | – | – | – | – | – | –
Cc1cc(NC(=O)c2cc(Cl)ccc2O)ccc1[N+](=O)[O-] [A17] | 50.1 | – | 0.324 ± 0.058 | 0.324 | 0.867 ± 0.298 | – | – | – | – | – | –
O=C(Nc1ccc([N+](=O)[O-])cc1C(F)(F)F)c1cc(Cl)ccc1O [A11] | -8.3 | – | – | – | – | – | – | – | – | – | –
O=C(Nc1ccc(C(F)(F)F)nc1)c1cc(F)ccc1O [B10] | 42.3 | – | 0.547 ± 0.153 | 0.547 | 0.627 ± 0.225 | – | – | – | – | – | –
O=C(Nc1ccc(C(F)(F)F)c(C(F)(F)F)c1)c1cccc(Cl)c1 [C1] | 53.1 | retained | 0.32 ± 0.115 | 0.32 | 0.299 | – | – | – | – | – | –
O=C(Nc1ccc(C(F)(F)F)c(C(F)(F)F)c1)c1cc(C(F)(F)F)ccc1O [B16] | 64.6 | equivalent or improved anti-proliferation potency | 0.111 ± 0.023 | 0.111 | 0.113 ± 0.044 | – | – | – | – | ~0.1 | ~0.1
O=C(Nc1ccc(C(F)(F)F)cc1F)c1cc(F)ccc1O [B6] | 62.5 | equivalent or improved anti-proliferation potency | 0.196 ± 0.032 | 0.196 | 0.185 ± 0.041 | – | – | – | – | – | –
O=C(Nc1ccc([N+](=O)[O-])cc1Cl)c1cc(Cl)ccc1O [Niclosamide, reference compound] | 55.8 | – | 0.284 ± 0.059 | 0.284 | 0.372 ± 0.074 | – | – | – | – | – | –
O=C(Nc1ccc([N+](=O)[O-])c(C(F)(F)F)c1)c1ccc(Cl)cc1O [A6] | 54.4 | equivalent or improved anti-proliferation potency | 0.424 ± 0.12 | 0.424 | 0.214 ± 0.067 | – | – | – | – | – | –
Cc1cc([N+](=O)[O-])ccc1NC(=O)c1cc(Cl)ccc1O [A12] | 58 | – | 0.248 ± 0.063 | 0.248 | 0.493 ± 0.105 | – | – | – | – | – | –
CNC(=O)c1ccc(N2C(=S)N(c3ccc(C#N)c(C(F)(F)F)c3)C(=O)C2(C)C)cc1F [Enzalutamide, reference compound] | 24.1 | – | – | – | – | – | – | – | – | – | –
O=C(Nc1ccc([N+](=O)[O-])c(F)c1)c1ccc(Cl)cc1O [A5] | 44.2 | – | 0.924 ± 0.414 | 0.925 | 0.937 ± 0.351 | – | – | – | – | – | –
N#Cc1ccc(NC(=O)c2cc(F)ccc2O)c(F)c1 [B13] | 65.6 | – | 0.184 ± 0.061 | 0.184 | 0.231 ± 0.072 | – | – | – | – | – | –
O=C(Nc1ccc([N+](=O)[O-])c(C(F)(F)F)c1)c1cccc(Br)c1 [C5] | 58.3 | retained | 0.306 ± 0.058 | 0.306 | 0.536 ± 0.201 | – | – | – | – | – | –
N#Cc1ccc(O)c(C(=O)Nc2ccc(C(F)(F)F)c(C(F)(F)F)c2)c1 [B15] | 44.8 | – | 1.04 ± 0.26 | 1.04 | 2.35 ± 0.53 | – | – | – | – | – | –
O=C(Nc1ccc(C(F)(F)F)cc1Cl)c1cc(F)ccc1O [B5] | 59.2 | – | 0.375 ± 0.063 | 0.375 | 0.384 ± 0.088 | – | – | – | – | – | –
O=C(Nc1ccc([N+](=O)[O-])cc1Cl)c1cc(Br)ccc1O [A19] | 13.4 | dramatic loss of activity | – | – | – | – | – | – | – | – | –
N#Cc1cc(C(F)(F)F)ccc1NC(=O)c1cc(F)ccc1O [B7] | 42.3 | – | 7.92 ± 2.56 | 7.93 | 4.38 ± 1.33 | – | – | – | – | – | –
